NC(=O)c1ccccc1
solubility (mole fraction)
Conditions	283.15 K	288.15 K	293.15 K	298.15 K	303.15 K	308.15 K	313.15 K	318.15 K	323.15 K
in acetone	0.0508	0.0589	0.0703	0.0817	0.0948	0.107	0.126	0.149	0.174
in acetonitrile	0.0162	0.0196	0.0231	0.0278	0.0331	0.0385	0.046	0.0564	0.0712
in ethanol	0.0412	0.0479	0.0555	0.0648	0.0758	0.087	0.101	0.12	0.143
in ethyl acetate	0.0206	0.0234	0.0279	0.0334	0.0392	0.0455	0.0518	0.0613	0.0719
in isobutanol	0.0268	0.0289	0.0342	0.0416	0.0489	0.0569	0.0665	0.0786	0.0945
in isopropanol	0.0253	0.0314	0.0387	0.0473	0.0558	0.0642	0.0767	0.0893	0.111
in methanol	0.0599	0.0699	0.0804	0.0917	0.105	0.121	0.141	0.164	0.189
in methyl acetate	0.0236	0.0277	0.0334	0.0401	0.0476	0.0567	0.0662	0.0769	0.0927
in n-butanol	0.0308	0.036	0.0425	0.0509	0.0591	0.0682	0.0787	0.0933	0.109
in n-butyl acetate	0.0176	0.0192	0.0224	0.0264	0.0304	0.0349	0.0402	0.0451	0.0525
in n-propanol	0.0329	0.0398	0.0479	0.0561	0.0653	0.0753	0.0891	0.103	0.126
in water	0.00099	0.00128	0.0017	0.00212	0.00261	0.00306	0.00363	0.00438	0.00538
